We go through 57 molecules from US5039806A, “Novel pharmacologically active compound pyridyl methylsulfinyl benzimidazole” (AB Hassle, priority 1983, dated 1991).

For this test, the system named is isolated rabbit gastric glands. Briefly: Inhibiting effect in vitro on acid secretion in isolated rabbit gastric glands (14C-aminopyrine accumulation). Type of test: cell-based. To be noted: Oryctolagus cuniculus, 1 h, logarithm of concentration (in M) giving 50% inhibition of aminopyrine accumulation; 5×10^-5 M histamine, 60 min, free base. As to the method: I. Inhibiting effect in vitro on acid secretion in isolated rabbit gastric glands
Isolated rabbit gastric glands were prepared as described by Berglindh et al., Acta physiol. scand. 1976. 96. 150-159. This method involves vascular perfusion of the rabbit stomach via the gastric arteries, scraping and scissor mincing of the separated gastric mucosa and collagenase (0.1%, Type I, Sigma Chemicals, St. Louis, MO. USA) digestion at 37° C. for 60-90 min. The glands are then harvested and filtered through nylon cloth to remove coarse fragments. The glands are thereafter incubated at 37° C. in a medium containing NaCl 132.4 mM, KCl 5.4 mM, […], NaH2 PO4 1.0 mM, MgSO4 1.2 mM, CaCl2 1.0 mM, glucose 10 mM, and 1 mg/ml rabbit albumine, pH 7.4.
The acid secretion in the isolated gland preparation was recorded by measuring the uptake of ^14 C-labelled aminopyrine into the glands as described by Berglindh et al., Acta physiol. scand. 1976. 97. 401-414. Accumulation of aminopyrine in the glands indicates gastric acid secretion within the glands. The standard medium contained 10^-6 M ^14 C-aminopyrine (Amersham, Great Britain). After the incubation period, the glands were centrifuged, the supernatant was removed and the glands dried, weighed and dissolved in Soluene -350 (Packard, IU. USA). Samples of the supernatant and glands were separately counted in a scintillation counter. The accumulation of ^14 C-labelled aminopyrine in the glands was calculated as detailed by Berglindh et al., Acta physiol. scand. 1976. 97. 403.
Glands were incubated for 60 min. in the presence of 5×10^-5 M histamine and the test compound to be studied. The free base of the test compound was dissolved in methanol. The final concentration of methanol was 1% in the incubation medium, having no influence on the aminopyrine accumulation ratio.
One may read the IC50 as the concentration that inhibits the measured activity by half. A lower IC50 goes with greater potency in that assay. Molecule `COc1c(C)cnc(C[S+]([O-])c2nc3c(C)c(C(C)=O)c(C)cc3[nH]2)c1C` (stereo not drawn) [Example 62] showed a concentration for half-maximal inhibition (IC50) of 631 nM.

On to `C=CCOc1c(C)cnc(C[S+]([O-])c2nc3c(C)ccc(C)c3[nH]2)c1C` (stereo not drawn) [Example 26], for which the IC50 was 1260 nM. The same measure for `COc1c(C)cnc(C[S+]([O-])c2nc3cc(C4CCCCC4)ccc3[nH]2)c1C` (stereo not drawn) [Example 45]: 794 nM.

Regarding `COc1c(C)cnc(C[S+]([O-])c2nc3cc(-c4ccccc4)ccc3[nH]2)c1C` (stereo not drawn) [Example 124], it took 100 nM to reach half-maximal inhibition (IC50). `Cc1cnc(C[S+]([O-])c2nc3cc4c(cc3[nH]2)OCO4)c(C)c1C` (stereo not drawn) [Example 142] gave an IC50 of 1000 nM. Molecule `Cc1cnc(C[S+]([O-])c2nc3c(C)c(C)c(C)cc3[nH]2)c(C)c1` (stereo not drawn) [Example 149] had a 50% inhibitory concentration (IC50) of 631 nM.

Turning to `COCCOc1c(C)cc2[nH]c([S+]([O-])Cc3ncc(C)c(OC)c3C)nc2c1C` (stereo not drawn) [Example 58], the IC50 is 1260 nM. For `C=CCOc1c(C)cnc(C[S+]([O-])c2nc3c(C)c(C)ccc3[nH]2)c1C` (stereo not drawn) [Example 22], it took 1000 nM to reach half-maximal inhibition (IC50). As for `CCc1c(C)cc2[nH]c([S+]([O-])Cc3ncc(C)c(OC)c3C)nc2c1C` (stereo not drawn) [Example 68], the figure is 316 nM.

The molecule `C#CCOc1c(C)cnc(C[S+]([O-])c2nc3cc(OC)ccc3[nH]2)c1C` (stereo not drawn) [Example 34] gave an IC50 of 10000 nM. Consider `CC(=O)c1c(C)cc2[nH]c([S+]([O-])Cc3ncc(C)cc3C)nc2c1C` (stereo not drawn) [Example 64], for which 1580 nM corresponded to half-maximal inhibition (IC50). On to `COc1c(C)cnc(C[S+]([O-])c2nc3cc(OCCc4ccccc4)ccc3[nH]2)c1C` (stereo not drawn) [Example 120], for which the half-maximal inhibitory concentration (IC50) was 501 nM.

`C=CCOc1c(C)cnc(C[S+]([O-])c2nc3cc(C(C)(C)C)ccc3[nH]2)c1C` (stereo not drawn) [Example 102] showed an IC50 of 1260 nM. Molecule `C=CCOc1c(C)cnc(C[S+]([O-])c2nc3c(C)c(C)c(C)cc3[nH]2)c1C` (stereo not drawn) [Example 14] gave an IC50 of 794 nM. Against the preceding molecule, the IC50 is about 1.6-fold lower. The same measure for `CCc1cnc(C[S+]([O-])c2nc3cc(C(=O)OC)c(C)cc3[nH]2)cc1OC` (stereo not drawn) [Example 143]: 794 nM; for `COc1ccc2[nH]c([S+]([O-])Cc3ncc(C)c(OCCC(C)C)c3C)nc2c1` (stereo not drawn) [Example 96]: 794 nM. `COc1c(C)cnc(C[S+]([O-])c2nc3cc4c(cc3[nH]2)OC2(CCCCC2)O4)c1C` (stereo not drawn) [Example 106]: the IC50 was 1000 nM. The IC50 values of the last two molecules are within 1.5-fold of each other.

Take `CCc1cnc(C[S+]([O-])c2nc3cc(C)c(C)cc3[nH]2)cc1OC` (stereo not drawn) [Example 77]: the concentration for half-maximal inhibition (IC50) was 1000 nM. That is a single-digit micromolar value.

`CCc1c(C)cc2[nH]c([S+]([O-])Cc3nccc(OC)c3C)nc2c1C` (stereo not drawn) [Example 70]: 1260 nM corresponded to half-maximal inhibition (IC50). For the molecule `C=CCOc1c(C)cnc(C[S+]([O-])c2nc3cc(CCC(C)=O)ccc3[nH]2)c1C` (stereo not drawn) [Example 113], 1580 nM corresponded to half-maximal inhibition (IC50). The molecule `CCCCCCCOc1c(C)cc2[nH]c([S+]([O-])Cc3ncc(C)c(OC)c3C)nc2c1C` (stereo not drawn) [Example 2, 4,6-dimethyl-5-heptyloxy-2-[[(4-methoxy-3,5-dimethyl-2-pyridinyl)methyl]sulfinyl]-1H-benzimidazole] gave an IC50 of 1260 nM. Take `COc1c(C)cnc(C[S+]([O-])c2nc3c(C)c(C)cc(C)c3[nH]2)c1C` (stereo not drawn) [Example 20]: it took 1000 nM to reach half-maximal inhibition (IC50).

Molecule `COc1c(C)cnc(C[S+]([O-])c2nc3c4c(ccc3[nH]2)CCCC4)c1C` (stereo not drawn) [Example 87] had an IC50 of 501 nM. As for `Cc1cnc(C[S+]([O-])c2nc3cc(C(C)C)ccc3[nH]2)c(C)c1OCC1CCCO1` (stereo not drawn) [Example 111], the figure is 631 nM; as for `COc1c(C)cnc(C[S+]([O-])c2nc3cc(C(=O)N4CCCCC4C)ccc3[nH]2)c1C` (stereo not drawn) [Example 79], 10000 nM.

Regarding `COc1c(C)cnc(C[S+]([O-])c2nc3cc(OCCCOc4ccccc4)ccc3[nH]2)c1C` (stereo not drawn) [Example 91], 1580 nM corresponded to half-maximal inhibition (IC50). In turn, `C=CCOc1c(C)cnc(C[S+]([O-])c2nc3cc(C)c(C)cc3[nH]2)c1C` (stereo not drawn) [Example 24] showed a half-maximal inhibitory concentration (IC50) of 1000 nM.

For the molecule `CCc1cnc(C[S+]([O-])c2nc3cc(OC)ccc3[nH]2)cc1OC` (stereo not drawn) [Example 35], 2510 nM corresponded to half-maximal inhibition (IC50).

In turn, `COc1c(C)cnc(C[S+]([O-])c2nc3c(C)c(OC)c(C)cc3[nH]2)c1C` (stereo not drawn) [Example 8, 4,6-dimethyl-5-methoxy-2-[[(4-methoxy-3,5-dimethyl-2-pyridinyl)methyl]sulfinyl]-1H-benzimidazole] showed an IC50 of 316 nM. As for `COCCc1ccc2[nH]c([S+]([O-])Cc3ncc(C)c(OC)c3C)nc2c1` (stereo not drawn) [Example 104], the figure is 2000 nM; as for `Cc1ccnc(C[S+]([O-])c2nc3c(C)c(C)cc(C)c3[nH]2)c1C` (stereo not drawn) [Example 151], 501 nM. As to `C=CCOc1c(C)cnc(C[S+]([O-])c2nc3cc(Br)ccc3[nH]2)c1C` (stereo not drawn) [Example 129], half-maximal inhibition (IC50) required 1000 nM.

With `COc1c(C)cnc(C[S+]([O-])c2nc3c(C)c(C)c(C)c(C)c3[nH]2)c1C` (stereo not drawn) [Example 12], inhibition was half-maximal at 316 nM (IC50). Turning to `C=CCOc1c(C)cnc(C[S+]([O-])c2nc3c(C)cccc3[nH]2)c1C` (stereo not drawn) [Example 28], the half-inhibitory concentration (IC50) was 1260 nM. Against the preceding molecule, the IC50 is about 4-fold higher. As for `COc1c(C)cnc(C[S+]([O-])c2nc3c(C)c(OC)c(C)c(C)c3[nH]2)c1C` (stereo not drawn) [Example 74], the midpoint of inhibition, the IC50, lay at 631 nM. This IC50 is about 2-fold lower than that of the molecule before.

Take `COc1c(C)cnc(C[S+]([O-])c2nc3c(cc4c5c(cccc53)CC4)[nH]2)c1C` (stereo not drawn) [Example 98]: 2510 nM corresponded to half-maximal inhibition (IC50). Compared with the last molecule, the IC50 is about 4-fold higher. For the molecule `Cc1cnc(C[S+]([O-])c2nc3c(C)c(C)c(C)cc3[nH]2)cc1C` (stereo not drawn) [Example 147], the IC50 was 398 nM. Consider `C=CCOc1c(C)cnc(C[S+]([O-])c2nc3c(C)c(C)cc(C)c3[nH]2)c1C` (stereo not drawn) [Example 18], for which the IC50 is 1260 nM. In the case of `C=CCOc1c(C)cnc(C[S+]([O-])c2nc3cc(C)ccc3[nH]2)c1C` (stereo not drawn) [Example 30], inhibition was half-maximal at 1260 nM (IC50). `COc1c(C)cc2[nH]c([S+]([O-])Cc3nccc(C)c3C)nc2c1C` (stereo not drawn) [Example 1, 4,6-dimethyl-5-methoxy-2-[[(3,4-dimethyl-2-pyridinyl)methyl]sulfinyl]-1H-benzimidazole] showed a half-inhibitory concentration (IC50) of 200 nM. As for `Cc1cnc(C[S+]([O-])c2nc3cc(C(F)(F)F)ccc3[nH]2)c(C)c1OCC1CCCO1` (stereo not drawn) [Example 159], the figure is 501 nM; as for `COCCOc1c(C)cc2[nH]c([S+]([O-])Cc3cc(C)c(C)cn3)nc2c1C` (stereo not drawn) [Example 60], 3980 nM. Regarding `C=CCOc1c(C)cnc(C[S+]([O-])c2nc3cc(OC)ccc3[nH]2)c1C` (stereo not drawn) [Example 32], 2510 nM corresponded to half-maximal inhibition (IC50). `COc1c(C)cnc(C[S+]([O-])c2nc3c(ccc4ccccc43)[nH]2)c1C` (stereo not drawn) [Example 83]: the IC50 is 5010 nM. `C=CCOc1c(C)cnc(C[S+]([O-])c2nc3cc(CC)ccc3[nH]2)c1C` (stereo not drawn) [Example 94] had an IC50 of 251 nM. As for `C=CCOc1c(C)cnc(C[S+]([O-])c2nc3c(C)c(C)c(C)c(C)c3[nH]2)c1C` (stereo not drawn) [Example 10], the figure is 794 nM. The molecule `CCC(=O)c1c(C)cc2[nH]c([S+]([O-])Cc3ncc(C)c(OC)c3C)nc2c1C` (stereo not drawn) [Example 66] gave an IC50 of 1000 nM. This IC50 and that of the molecule before are within 1.5-fold of each other.

`COc1ccc2[nH]c([S+]([O-])Cc3cc4c(cn3)CCCC4)nc2c1` (stereo not drawn) [Example 37] gave an IC50 of 10000 nM. Against the preceding molecule, the IC50 is about 10-fold higher.

As to `CCOc1c(C)cnc(C[S+]([O-])c2nc3c(C)c(C#N)c(C)cc3[nH]2)c1C` (stereo not drawn) [Example 153], the IC50 was 6310 nM. Take `Cc1ccnc(C[S+]([O-])c2nc3c(C)c(C)c(C)cc3[nH]2)c1C` (stereo not drawn) [Example 145]: the half-maximal inhibitory concentration (IC50) was 631 nM.

`COc1c(C)cnc(C[S+]([O-])c2nc3cc(OCC#N)ccc3[nH]2)c1C` (stereo not drawn) [Example 43] gave an IC50 of 39800 nM. For the molecule `CCc1cc2[nH]c([S+]([O-])Cc3ncc(C)c(OC)c3C)nc2c(CC)c1C#N` (stereo not drawn) [Example 72], half-maximal inhibition (IC50) was put at 10000 nM. `C=CCOc1c(C)cnc(C[S+]([O-])c2nc3c(C)cc(C)cc3[nH]2)c1C` (stereo not drawn) [Example 41] had an IC50 of 1260 nM.

The molecule `COc1c(C)cnc(C[S+]([O-])c2nc3cc(Oc4ccccc4)ccc3[nH]2)c1C` (stereo not drawn) [Example 118] gave an IC50 of 398 nM.

`COc1c(C)cnc(C[S+]([O-])c2nc3c(C)c(C)c(C)cc3[nH]2)c1C` (stereo not drawn) [Example 16]: the concentration for half-maximal inhibition (IC50) is 316 nM. In turn, `C=CCOc1c(C)cnc(C[S+]([O-])c2nc3cc(C(=O)OC)c(C)cc3[nH]2)c1C` (stereo not drawn) [Example 55] had an IC50 of 5010 nM.

For `COc1c(C)cnc(C[S+]([O-])c2nc3cc(CO)c(C)cc3[nH]2)c1C` (stereo not drawn) [Example 51], 794 nM corresponded to half-maximal inhibition (IC50).
